# Laboratory results from patent US8722088B2, “Pharmaceutical compositions and methods for the treatment of prostate cancer” (Ferring International Center S.A., priority 2009, dated 2014).
# Where a SMILES comes first, the peptide text is derived from it. [ ]: non-standard residue; d: D form. The star is where a group is joined. dPhe(4-NHCONH2) = NC(=O)Nc1ccc(C[C@@H](N)C(=O)O)cc1; Dihydroorotyl(S) = O=C1C[C@@H](C(=O)*)NC(=O)N1; dPhe(4-Cl) = N[C@H](Cc1ccc(Cl)cc1)C(=O)O; Phe(4-NH2) = Nc1ccc(C[C@H](N)C(=O)O)cc1; d2Nal = N[C@H](Cc1ccc2ccccc2c1)C(=O)O; Lys(iPr) = CC(C)NCCCC[C@H](N)C(=O)O; d3Pal = N[C@H](Cc1cccnc1)C(=O)O
# Tested on: PSA
# Assay: Clinical trial CS18: PSA change from baseline
# Assay type: in vivo, human
# Experimental: PSA is a commonly used marker in the diagnosis of prostate cancer and has more recently also been used to monitor response to treatment as well as disease recurrence and progression (Fleming et al. (2006) Nat. Clin. Pract. Oncol. 3: 658-68; Lilja, et al. (2008) Nat. Rev. Cancer 8: 268-78). In general, higher levels of PSA are associated with more severe forms of prostate cancer, with metastatic stage prostate cancer being associated with the highest level of PSA (e.g., >50 ng/mL). Accordingly, rising PSA levels in patients undergoing prostate cancer treatment are associated with incomplete or failed efficacy of the treatment. Here, there were further reductions in PSA after Month 1 and the median reductions were sustained throughout the study period (median reductions of 96-97%).
compound,measurement,setting,value
"CC(=O)N[C@H](Cc1ccc2ccccc2c1)C(=O)N[C@H](Cc1ccc(Cl)cc1)C(=O)N[C@H](Cc1cccnc1)C(=O)N[C@@H](CO)C(=O)N[C@@H](Cc1ccc(NC(=O)[C@@H]2CC(=O)NC(=O)N2)cc1)C(=O)N[C@H](Cc1ccc(NC(N)=O)cc1)C(=O)N[C@@H](CC(C)C)C(=O)N[C@@H](CCCCNC(C)C)C(=O)N1CCC[C@H]1C(=O)N[C@H](C)C(N)=O [Degarelix, D-Alaninamide, N-acetyl-3-(2-naphthalenyl)-D-alanyl-4-chloro-D-phenylalanyl-3-(3-pyridinyl)-D-alanyl-L-seryl-4-[[[(4S)-hexahydro-2,6-dioxo-4-pyrimidinyl]carbonyl]amino]-L-phenylalanyl-4-[(aminocarbonyl)amino]-D-phenylalanyl-L leucyl-N6-(1-methylethyl)-L-lysyl-L-prolyl] (Ac-[d2Nal][dPhe(4-Cl)][d3Pal]S[Phe(4-NH2)](Dihydroorotyl(S))[dPhe(4-NHCONH2)]L[Lys(iPr)]P[dA]-NH2)","PSA, Median % Change from Baseline","360/60 mg, Day 28",−83.8%
same,"PSA, Median % Change from Baseline","360/60 mg, Day 56",−93.8%
same,"PSA, Median % Change from Baseline","360/60 mg, Day 84",−95.0%
same,"PSA, Median % Change from Baseline","360/60 mg, Day 112",−95.5%
same,"PSA, Median % Change from Baseline","360/60 mg, Day 140",−96.2%
same,"PSA, Median % Change from Baseline","360/60 mg, Day 168",−96.8%
same,"PSA, Median % Change from Baseline","360/60 mg, Day 196",−95.9%
same,"PSA, Median % Change from Baseline","360/60 mg, Day 224",−96.4%
same,"PSA, Median % Change from Baseline","360/60 mg, Day 252",−97.0%
same,"PSA, Median % Change from Baseline","360/60 mg, Day 280",−97.0%
same,"PSA, Median % Change from Baseline","360/60 mg, Day 308",−97.3%
same,"PSA, Median % Change from Baseline","360/60 mg, Day 336",−97.5%
same,"PSA, Median % Change from Baseline","360/60 mg, Day 364",−96.9%
same,"PSA, Median % Change from Baseline","360/60 mg, Last visit",−96.9%
same,"PSA, Median % Change from Baseline","480/60 mg, Day 28",−78.9%
same,"PSA, Median % Change from Baseline","480/60 mg, Day 56",−90.9%
same,"PSA, Median % Change from Baseline","480/60 mg, Day 84",−93.4%
same,"PSA, Median % Change from Baseline","480/60 mg, Day 112",−95.3%
same,"PSA, Median % Change from Baseline","480/60 mg, Day 140",−95.5%
same,"PSA, Median % Change from Baseline","480/60 mg, Day 168",−96.5%
same,"PSA, Median % Change from Baseline","480/60 mg, Day 196",−96.2%
same,"PSA, Median % Change from Baseline","480/60 mg, Day 224",−96.6%
same,"PSA, Median % Change from Baseline","480/60 mg, Day 252",−96.9%
same,"PSA, Median % Change from Baseline","480/60 mg, Day 280",−96.5%
same,"PSA, Median % Change from Baseline","480/60 mg, Day 308",−97.0%
same,"PSA, Median % Change from Baseline","480/60 mg, Day 336",−97.4%
same,"PSA, Median % Change from Baseline","480/60 mg, Day 364",−97.1%
same,"PSA, Median % Change from Baseline","480/60 mg, Last visit",−96.5%
same,median reductions in PSA sustained throughout the study period,"CS18, after Month 1",96-97%
same,"PSA, Median % Change from Baseline","Total (both arms), Day 28",−81.2%
same,"PSA, Median % Change from Baseline","Total (both arms), Day 56",−92.9%
same,"PSA, Median % Change from Baseline","Total (both arms), Day 84",−94.5%
same,"PSA, Median % Change from Baseline","Total (both arms), Day 112",−95.4%
same,"PSA, Median % Change from Baseline","Total (both arms), Day 140",−95.9%
same,"PSA, Median % Change from Baseline","Total (both arms), Day 168",−96.6%
same,"PSA, Median % Change from Baseline","Total (both arms), Day 196",−96.2%
same,"PSA, Median % Change from Baseline","Total (both arms), Day 224",−96.5%
same,"PSA, Median % Change from Baseline","Total (both arms), Day 252",−96.9%
same,"PSA, Median % Change from Baseline","Total (both arms), Day 280",−97.0%
same,"PSA, Median % Change from Baseline","Total (both arms), Day 308",−97.2%
same,"PSA, Median % Change from Baseline","Total (both arms), Day 336",−97.4%
same,"PSA, Median % Change from Baseline","Total (both arms), Day 364",−96.9%
same,"PSA, Median % Change from Baseline","Total (both arms), Last visit",−96.8%
